How the values were obtained:
Format in all cases: in vivo, Nude mice
[1] = test system: SW48-parental xenograft (HD PAR-006, KRAS WT); test: Tumor volume of SW48-parental xenograft in isogenic dual-xenograft mice; details: Erlotinib 50 mg/kg p.o. once daily, 14 days, vs saline
Method: The SW48 series colorectal adenocarcinoma cells were obtained from Horizon Discovery Ltd (see below in Table 1 for Catalogue number details), and maintained in vitro as a monolayer culture in McCoy's 5A medium supplemented with 10% heat inactivated fetal bovine serum, 2 mM L-glutamine, with or without G418, at 37° C. in an atmosphere of 5% CO2 in air. The tumor cells were routinely subcultured every 3-5 days by trypsin-EDTA treatment. Cells growing in an exponential growth phase were harvested and counted for tumor inoculation. HD 103-002 cell line was derived from parental SW48 cell line HD PAR-006 with heterozygous knock-in of KRAS activating mutation-G13D; HD 103-007 cell line was derived from parental SW48 cell line HD PAR-006 with heterozygous knock-in of KRAS activating mutation-G12V. […]
(§1) The major endpoint was to evaluate the tumor growth. Tumor sizes were measured twice weekly in two dimensions using a caliper, and the volume were expressed in mm3 using the formula: V=0.5 a×b^2, where a and b are the long and short diameters of the tumor, respectively.

[2] = test system: SW48-KRAS (G13D/+) xenograft (HD 103-002); test: Tumor volume of SW48-KRAS (G13D/+) xenograft in isogenic dual-xenograft mice
Method: (§2) The SW48 series colorectal adenocarcinoma cells were obtained from Horizon Discovery Ltd (see below in Table 1 for Catalogue number details), and maintained in vitro as a monolayer culture in McCoy's 5A medium supplemented with 10% heat inactivated fetal bovine serum, 2 mM L-glutamine, with or without G418, at 37° C. in an atmosphere of 5% CO2 in air. The tumor cells were routinely subcultured every 3-5 days by trypsin-EDTA treatment. Cells growing in an exponential growth phase were harvested and counted for tumor inoculation. HD 103-002 cell line was derived from parental SW48 cell line HD PAR-006 with heterozygous knock-in of KRAS activating mutation-G13D; HD 103-007 cell line was derived from parental SW48 cell line HD PAR-006 with heterozygous knock-in of KRAS activating mutation-G12V.
(§3) Each mouse is grafted subcutaneously at the left and right flank with SW48 tumor cells (1×10^7 cells) in 0.1 ml of PBS for tumor development, among which 15 mouse are grafted with 1×10^7HD PAR-006 cells at their left flank and with 1×10^7 HD 103-002 cells at their right flank, and the other 15 mouse are grafted with 1×10^7 HD PAR-006 cells at their left flank and with 1×10^7 HD103-007 cells at their right flank. Mice with xenografts are then allow sufficient time (in present embodiment, around 5-8 days) to develop solid tumor.
(§4) Isogenic dual-xenograft mice produced in accordance to the methods described in Example 1 were used to evaluate test agents for their efficacy on the disease associated with mutations of gene. More specifically, mice with different KRAS mutations were treated with EGFR inhibitors to address the question of resistant phenotypes elicited by different KRAS mutations. This design allows direct comparison of wild type and mutant isogenic pairs for treatment responses that are associated with the defined genetic variations.
as §1

[3] = test system: SW48-KRAS (G12V/+) xenograft (HD 103-007); test: Tumor volume of SW48-KRAS (G12V/+) xenograft in isogenic dual-xenograft mice
Method: as §2, §3, §4, §1

[4] = Erlotinib 50 mg/kg p.o. once daily, 14 days
[5] = Erlotinib 50 mg/kg, p.o., Qd x 14, SW48 KRAS(G13D/+), tumor volume
[6] = Erlotinib 50 mg/kg, p.o., Qd x 14, SW48 KRAS(G12V/+), tumor volume

SMILES: C#Cc1cccc(Nc2ncnc3cc(OCCOC)c(OCCOC)cc23)c1 [Erlotinib]
- effect on tumor volume of the SW48-parental xenograft (FIG. 2A) ([1]; dual model with SW48-KRAS (G12V/+)): reduced
- effect on tumor volume of the SW48-parental xenograft (FIG. 1A) ([1]; dual model with SW48-KRAS (G13D/+)): significantly reduced
- response of SW48 KRAS (G13D/+) compared to the parental line [2, 4]: remains sensitive
- effect on tumor volume of the SW48-KRAS (G13D/+) xenograft (FIG. 1B) ([2]; Erlotinib 50 mg/kg p.o. once daily, 14 days, vs saline): significantly reduced
- T/C on Day 21 [2, 5]: 24%
- TGI on Day 21 [2, 5]: 76%
- response of SW48 KRAS (G12V/+) compared to the parental line [3, 4]: resistant
- reduction on the tumor volume of the SW48-KRAS (G12V/+) xenograft (FIG. 2B) ([3]; Erlotinib 50 mg/kg p.o. once daily, 14 days, compared with parental xenograft): not as significant as on the SW48-KRAS-parental xenograft
- T/C on Day 21 [3, 6]: 86%
- TGI on Day 21 [3, 6]: 14%

— patent US9743646B2, “Method of establishing isogenic multi-xenograft model and the use thereof” (Crown Bioscience Inc. (Taicang), priority 2014, dated 2017)
